The record followed here is US12668600B2 (Kumquat Biosciences Inc., priority 2023, dated 2026).

What all share (format): biochemical
The target of one assay is T1, KRAS G12D (Homo sapiens, UniProt P01116, G12D).
T1 construct: made in house; host or cells: E. coli, e.g. BL21 (DE3)
The assay is described as follows: HTRF KRAS-SOS1 interaction assay, KRAS G12D. Conditions: binned ≤2 μM / >2 μM, read-out: Inhibition of KRAS G12D (IC50). The essentials: (§1)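 Read-out: HTRF ratio 665/620 nm after ≥10 min incubation of compound with GST-KRAS/anti-GST-Eu and His-hSOS1/anti-6His-XL665. Duplicate dose series, 10 μM down to 0.01 μM. Buffer HEPES pH 7.4, NaCl, DTT, BSA, Igepal.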
For orientation: In TR-FRET formats the signal depends on donor and acceptor labels being close together.

A further assay has as its target T2, KRAS WT (Homo sapiens, UniProt P01116).
T2 construct: made in house; host or cells: E. coli, e.g. BL21 (DE3)
The assay is described as follows: HTRF KRAS-SOS1 interaction assay, wildtype KRAS. As to conditions: binned ≤2 μM / >2 μM, read-out: Inhibition of KRAS WT (IC50). The essentials: as §1

The target in a further assay is T3, KRAS G12V (Homo sapiens, UniProt P01116, G12V).
T3 construct: made in house; host or cells: E. coli, e.g. BL21 (DE3)
Kind of assay: HTRF KRAS-SOS1 interaction assay, KRAS G12V. Conditions: binned ≤2 μM / >2 μM, read-out: Inhibition of KRAS G12V (IC50). The essentials:
as §1

Another assay concerns the target T4, KRAS G12S (Homo sapiens, UniProt P01116, G12S).
T4 construct: made in house; host or cells: E. coli, e.g. BL21 (DE3)
Kind of assay: HTRF KRAS-SOS1 interaction assay, KRAS G12S. As to conditions: binned ≤2 μM / >2 μM, read-out: Inhibition of KRAS G12S (IC50). The essentials: as §1

Each structure is given as a SMILES string.

The term IC50 denotes the midpoint of a concentration-inhibition curve.

T3 sequence (P01116 1-188 isoform P01116-2 G12V): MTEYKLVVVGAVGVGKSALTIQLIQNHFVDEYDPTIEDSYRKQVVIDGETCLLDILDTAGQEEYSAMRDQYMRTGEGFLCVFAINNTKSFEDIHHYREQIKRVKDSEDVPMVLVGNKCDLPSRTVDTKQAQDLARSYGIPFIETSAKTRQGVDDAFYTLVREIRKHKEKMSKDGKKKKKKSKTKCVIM
T2 sequence (P01116 1-188 isoform P01116-2): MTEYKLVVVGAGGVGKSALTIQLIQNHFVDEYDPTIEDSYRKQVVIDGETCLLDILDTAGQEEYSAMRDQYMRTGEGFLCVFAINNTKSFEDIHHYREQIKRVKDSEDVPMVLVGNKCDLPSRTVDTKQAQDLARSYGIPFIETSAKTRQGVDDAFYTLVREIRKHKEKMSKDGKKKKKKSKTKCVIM
T1 sequence (P01116 1-188 isoform P01116-2 G12D): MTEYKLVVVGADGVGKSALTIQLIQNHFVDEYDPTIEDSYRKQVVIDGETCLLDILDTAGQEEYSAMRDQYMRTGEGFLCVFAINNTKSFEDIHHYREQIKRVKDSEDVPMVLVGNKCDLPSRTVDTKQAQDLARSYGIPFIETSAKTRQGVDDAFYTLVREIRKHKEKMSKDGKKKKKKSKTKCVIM
T4 sequence (P01116 1-188 isoform P01116-2 G12S): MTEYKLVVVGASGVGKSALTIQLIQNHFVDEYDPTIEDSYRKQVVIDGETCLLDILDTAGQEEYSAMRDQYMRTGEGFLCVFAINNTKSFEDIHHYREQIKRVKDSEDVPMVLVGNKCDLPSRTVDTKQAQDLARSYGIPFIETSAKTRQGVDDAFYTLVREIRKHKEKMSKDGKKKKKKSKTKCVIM

As to `C[C@H](c1cccnc1N)N1CCOc2nc(-c3ccc(F)c4sc(N)c(C#N)c34)c(F)c3nc(OC[C@@]45CCCN4C[C@H](F)C5)nc1c23` (single isomer, unassigned) [Compound 619], the half-maximal inhibitory concentration (IC50) at KRAS G12D, at KRAS WT, on KRAS G12V and at KRAS G12S was not above 2 µM in each case.

On to `N#Cc1c(N)sc2c(F)ccc(-c3c(C(F)(F)F)c4c5c(nc(OC[C@@]67CCCN6C[C@H](F)C7)nc5c3F)N([C@H](CCC3CCC3)c3cccnc3N)CCO4)c12` (single isomer, unassigned) [Compound 631], for which the half-inhibitory concentration (IC50) on KRAS G12D is more than 2 µM; at KRAS WT it was more than 2 µM; at KRAS G12V, not above 2 µM; at KRAS G12S it was not above 2 µM.

`C[C@H](Oc1nc2c3c(c(Cl)c(-c4ccc(F)c5sc(N)c(C#N)c45)c(F)c3n1)OCCN2[C@H](C)c1cccnc1N)[C@@H]1CCCN1C` (single isomer, unassigned) [Compound 633]: the IC50 on KRAS G12D, at KRAS WT, at KRAS G12V and on KRAS G12S was not above 2 µM each time.

As for `C[C@H](c1cccnc1N)N1CCOc2c(Cl)c(-c3ccc(F)c4sc(N)c(C#N)c34)c(F)c3nc(OC[C@@H]4CCCN4C)nc1c23` (single isomer, unassigned) [Compound 641], the IC50 at KRAS G12D, on KRAS WT, on KRAS G12V and on KRAS G12S was not above 2 µM in each case.

Regarding `C[C@H](c1cccnc1N)N1CCOc2nc(-c3ccc(F)c4sc(N)c(C#N)c34)c(F)c3nc(OC[C@@H]4CCCN4C)nc1c23` (single isomer, unassigned) [Compound 651], the half-inhibitory concentration (IC50) at KRAS G12D, on KRAS WT, on KRAS G12V and at KRAS G12S was not above 2 µM each time.

As to `CC(Oc1nc2c3c(c(Cl)c(-c4ccc(F)c5sc(N)c(C#N)c45)c(F)c3n1)OCCN2[C@H](C)c1cccnc1N)[C@@H]1CC(F)(F)CN1C` (single isomer, unassigned) [Compound 659], the 50% inhibitory concentration (IC50) on KRAS G12D, on KRAS WT, at KRAS G12V and at KRAS G12S was more than 2 µM throughout.

Consider `C[C@H](Oc1nc2c3c(nc(-c4ccc(F)c5sc(N)c(C#N)c45)c(F)c3n1)OCCN2[C@H](C)c1cccnc1N)C1CCCN1C` (single isomer, unassigned) [Compound 670], for which the IC50 at KRAS G12D, at KRAS WT, at KRAS G12V and on KRAS G12S was not above 2 µM each time.

Take `N#Cc1c(N)sc2cccc(-c3c(Cl)c4c5c(nc(OC[C@@]67CCCN6C[C@H](F)C7)nc5c3F)N([C@@H](c3cccnc3N)C(F)F)CCO4)c12` (single isomer, unassigned) [Compound 672]: the half-maximal inhibitory concentration (IC50) at KRAS G12D, at KRAS WT, on KRAS G12V and on KRAS G12S was not above 2 µM in each case.

For `C[C@H](c1cccnc1N)N1CCOc2c(Cl)c(-c3ccc(F)c4sc(N)c(C#N)c34)c(F)c3nc(OCC45CCCC4CCC5)nc1c23` (single isomer, unassigned) [Compound 674], the IC50 at KRAS G12D, on KRAS WT, at KRAS G12V and on KRAS G12S was more than 2 µM in each case.

For the compound `C[C@H](c1cc(F)cnc1N)N1CCOc2c(C(F)(F)F)c(-c3ccc(F)c4sc(N)c(C#N)c34)c(F)c3nc(OC[C@@]45CCCN4C[C@H](F)C5)nc1c23` (single isomer, unassigned) [Compound 682], the half-maximal inhibitory concentration (IC50) on KRAS G12D, at KRAS WT, at KRAS G12V and at KRAS G12S was more than 2 µM throughout.

Regarding `Cc1c(F)c(N)cc(-c2nc3c4c(nc(OC[C@@]56CCCN5C[C@H](F)C6)nc4c2F)N([C@H](C)c2cccnc2N)C[C@H](C)O3)c1C(F)(F)F` (single isomer, unassigned) [Compound 687], the IC50 at KRAS G12D, on KRAS WT, at KRAS G12V and on KRAS G12S was not above 2 µM throughout.

With `N#Cc1c(N)sc2c(F)ccc(-c3c(C(F)(F)F)c4c5c(nc(OC[C@@]67CCCN6C[C@H](F)C7)nc5c3F)N([C@H](CCC3CC(F)(F)C3)c3cccnc3N)CCO4)c12` (single isomer, unassigned) [Compound 689], the 50% inhibitory concentration (IC50) at KRAS G12D is more than 2 µM; at KRAS WT, not above 2 µM; on KRAS G12V it was not above 2 µM; on KRAS G12S it was not above 2 µM.

Regarding `N#Cc1c(N)sc2c(F)ccc(-c3c(C(F)(F)F)c4c5c(nc(OC[C@@]67CCCN6C[C@H](F)C7)nc5c3F)N([C@H](CC3CCOC3)c3cccnc3N)CCO4)c12` (single isomer, unassigned) [Compound 692], the IC50 on KRAS G12D, on KRAS WT, on KRAS G12V and on KRAS G12S was not above 2 µM throughout.

As to `C[C@H](c1cccnc1N)N1CCOc2c(C(F)(F)F)c(-c3ccc(F)c4sc(N)c(C#N)c34)c(F)c3nc(OCC4(CN5CCC(=C(F)F)CC5)CC4)nc1c23` (single isomer, unassigned) [Compound 693], the concentration for half-maximal inhibition (IC50) on KRAS G12D, on KRAS WT, on KRAS G12V and on KRAS G12S was not above 2 µM each time.

Regarding `Cc1c(F)c(N)cc(-c2nc3c4c(nc(OC[C@@H]5CCCN5C)nc4c2F)N([C@H](C)c2cccnc2N)CCO3)c1C(F)(F)F` (single isomer, unassigned) [Compound 695], the IC50 at KRAS G12D, on KRAS WT, at KRAS G12V and at KRAS G12S was not above 2 µM in each case.

On to `C[C@H](c1cccnc1N)N1C[C@H](C)Oc2c(C(F)(F)F)c(-c3ccc(F)c4sc(N)c(C#N)c34)c(F)c3nc(OC[C@@]45CCCN4C[C@H](F)C5)nc1c23` (single isomer, unassigned) [Compound 697], for which the IC50 on KRAS G12D, on KRAS WT, on KRAS G12V and at KRAS G12S was not above 2 µM throughout.

For the compound `CCON=C1CN2CCC[C@@]2(COc2nc3c4c(c(Cl)c(-c5ccc(F)c6sc(N)c(C#N)c56)c(F)c4n2)OCCN3[C@H](C)c2cccnc2N)C1` (single isomer, unassigned) [Compound 700], the concentration for half-maximal inhibition (IC50) on KRAS G12D, at KRAS WT, on KRAS G12V and on KRAS G12S was not above 2 µM throughout.

As for `C[C@H](c1cc(Cl)cnc1N)N1CCOc2c(C(F)(F)F)c(-c3ccc(F)c4sc(N)c(C#N)c34)c(F)c3nc(OC[C@@]45CCCN4C[C@H](F)C5)nc1c23` (single isomer, unassigned) [Compound 702], the IC50 on KRAS G12D, on KRAS WT, on KRAS G12V and at KRAS G12S was more than 2 µM in each case.

In the case of `N#Cc1c(N)sc2c(F)ccc(-c3c(C(F)(F)F)c4c5c(nc(OC[C@@]67CCCN6C[C@H](F)C7)nc5c3F)N([C@H](CCCN3CCCCC3)c3cccnc3N)CCO4)c12` (single isomer, unassigned) [Compound 704], the IC50 at KRAS G12D, at KRAS WT, on KRAS G12V and at KRAS G12S was not above 2 µM in each case.

In the case of `CN(C)CCC[C@H](c1cccnc1N)N1CCOc2c(C(F)(F)F)c(-c3ccc(F)c4sc(N)c(C#N)c34)c(F)c3nc(OC[C@@]45CCCN4C[C@H](F)C5)nc1c23` (single isomer, unassigned) [Compound 705], the IC50 on KRAS G12D, at KRAS WT, on KRAS G12V and on KRAS G12S was not above 2 µM in each case.

Take `C=C1CN2CC(=C)CC2(COc2nc3c4c(c(C(F)(F)F)c(-c5ccc(F)c6sc(N)c(C#N)c56)c(F)c4n2)OCCN3[C@H](C)c2cncnc2N)C1` (single isomer, unassigned) [Compound 707]: the concentration for half-maximal inhibition (IC50) on KRAS G12D, at KRAS WT, on KRAS G12V and on KRAS G12S was not above 2 µM throughout.

On to `N#Cc1c(N)sc2c(F)ccc(-c3c(Cl)c4c5c(nc(OC[C@@]67CCCN6C[C@H](F)C7)nc5c3F)N(C(/C=C/F)c3cccnc3N)CCO4)c12` (single isomer, unassigned) [Compound 708], for which the IC50 at KRAS G12D, at KRAS WT, on KRAS G12V and at KRAS G12S was not above 2 µM in each case.

Turning to `CCO/N=C(\C)CCC[C@H](c1cccnc1N)N1CCOc2c(C(F)(F)F)c(-c3ccc(F)c4sc(N)c(C#N)c34)c(F)c3nc(OC[C@@]45CCCN4C[C@H](F)C5)nc1c23` (single isomer, unassigned) [Compound 715], the 50% inhibitory concentration (IC50) on KRAS G12D, at KRAS WT, on KRAS G12V and on KRAS G12S was not above 2 µM in each case.

Turning to `Cc1cnc(N)c([C@@H](C)N2CCOc3c(C(F)(F)F)c(-c4ccc(F)c5sc(N)c(C#N)c45)c(F)c4nc(OC[C@@]56CCCN5C[C@H](F)C6)nc2c34)n1` (single isomer, unassigned) [Compound 718], the IC50 on KRAS G12D is more than 2 µM; on KRAS WT, not above 2 µM; on KRAS G12V it was not above 2 µM; at KRAS G12S it was not above 2 µM.

Turning to `C[C@H](c1cccnc1N)N1CCOc2c(C(F)(F)F)c(-c3ccc(F)c4sc(N)c(C#N)c34)c(F)c3nc(OCC4(CN5[C@H](C)COC[C@@H]5C)CC4)nc1c23` (single isomer, unassigned) [Compound 719], the half-inhibitory concentration (IC50) on KRAS G12D, at KRAS WT, at KRAS G12V and on KRAS G12S was more than 2 µM in each case.
